These results are taken from article PMC7413254 (Nature Communications, 2020).

Assay type in all cases: cell-based
The target of experiment [1] is T1, PfCRT^Dd2 (Plasmodium falciparum, UniProt Q9N623, A220S/I356T/K76T/M74I/N326S/N75E/Q271E/R371I). As to the kind of experiment: [3H]CQ uptake into Xenopus oocytes, cis-inhibition by unlabelled solute. As to conditions: PfCRTEcu1110 and PfCRTDd2. In short, it runs like this:
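Inward transport into oocyte cytosol from pH 5.5 medium models PfCRT efflux from the acidic digestive vacuole. Incubation 1.5 h, 27.5 °C; termination by ice-cold washes; lysate radioactivity counted.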

The target in the next experiment is PfCRT^3D7 (Plasmodium falciparum, UniProt Q8IBZ9). In words: cell-based. As to conditions: for [3H]CQ transport, PfCRT3D7 (% PfCRT3D7 control): trans-stimulation, solute 45 mM injected (estimated intracellular). In short, it runs like this:
(§1)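 Oocytes (ten per treatment, ≥4 independent frogs/days) were preloaded by injecting VF-6 in 25 nL ND96 at pH 5.0, 5.5, 6.0 or 7.0, or Na^+-free choline buffer, then uptake run 1.5 h, 27.5 °C, ND96 pH 5.5 by default. Internal concentrations assumed ~400 nL oocyte volume.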

The target in experiment [2] is T1, PfCRT^Dd2. In words: cell-based. The settings on record: PfCRTDd2; mean ± SEM, n = 5; SEM. In short, it runs like this: as §1
The target in another experiment is T2, PfNT1 (Plasmodium falciparum, UniProt Q8IDM6).
T2 construct: expressed in transfected cells; host or cells: Xenopus laevis oocytes (stage V-VI), cRNA-injected
T2 sequence (Q8IDM6 whole entry): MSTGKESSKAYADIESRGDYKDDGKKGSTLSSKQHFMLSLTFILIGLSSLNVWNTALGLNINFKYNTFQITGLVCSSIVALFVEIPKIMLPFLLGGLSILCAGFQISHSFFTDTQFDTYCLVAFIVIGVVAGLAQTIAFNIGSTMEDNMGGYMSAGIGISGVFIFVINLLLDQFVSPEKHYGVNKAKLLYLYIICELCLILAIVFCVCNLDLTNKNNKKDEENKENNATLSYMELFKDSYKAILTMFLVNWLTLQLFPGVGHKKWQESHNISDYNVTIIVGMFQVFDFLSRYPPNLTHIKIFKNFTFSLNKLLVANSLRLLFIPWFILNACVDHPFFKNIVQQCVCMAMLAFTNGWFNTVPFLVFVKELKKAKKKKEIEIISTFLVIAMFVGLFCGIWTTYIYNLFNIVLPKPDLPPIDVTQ
In words: cell-based. As to conditions: trans-stimulation, solute 45 mM injected (estimated intracellular). An outline of the steps:
as §1

For the next experiment, the target named is PfCRT^Ecu1110 (Plasmodium falciparum, UniProt Q9N623, A220S/I356L/K76T/N326D). As to the kind of experiment: cell-based. The settings on record: PfCRTEcu1110; mean ± SEM, n = 5; SEM. An outline of the steps:
as §1

Chain of PfCRT^3D7 (Q8IBZ9 59-398): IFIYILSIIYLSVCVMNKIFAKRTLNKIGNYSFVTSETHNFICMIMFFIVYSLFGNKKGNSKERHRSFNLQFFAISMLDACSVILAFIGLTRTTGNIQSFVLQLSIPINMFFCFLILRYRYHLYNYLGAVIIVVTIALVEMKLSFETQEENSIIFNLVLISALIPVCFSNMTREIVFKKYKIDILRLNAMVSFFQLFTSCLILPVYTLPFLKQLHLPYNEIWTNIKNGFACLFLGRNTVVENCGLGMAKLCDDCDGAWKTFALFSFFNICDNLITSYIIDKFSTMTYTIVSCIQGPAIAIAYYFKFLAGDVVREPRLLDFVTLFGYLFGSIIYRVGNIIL
T1 sequence (Q9N623 whole entry A220S/I356T/K76T/M74I/N326S/N75E/Q271E/R371I): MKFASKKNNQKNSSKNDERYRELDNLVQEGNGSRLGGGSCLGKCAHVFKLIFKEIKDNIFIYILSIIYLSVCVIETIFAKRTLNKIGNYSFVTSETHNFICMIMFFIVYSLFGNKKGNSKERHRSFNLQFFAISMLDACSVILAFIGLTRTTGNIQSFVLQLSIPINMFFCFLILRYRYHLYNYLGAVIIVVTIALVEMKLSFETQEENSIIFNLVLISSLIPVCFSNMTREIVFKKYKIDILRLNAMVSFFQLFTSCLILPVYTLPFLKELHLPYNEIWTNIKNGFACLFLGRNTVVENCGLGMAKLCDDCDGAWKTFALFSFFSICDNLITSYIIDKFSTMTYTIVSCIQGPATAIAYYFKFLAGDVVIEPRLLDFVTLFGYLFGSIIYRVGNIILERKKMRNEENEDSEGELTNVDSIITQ
Chain of PfCRT^Ecu1110 (Q9N623 whole entry A220S/I356L/K76T/N326D): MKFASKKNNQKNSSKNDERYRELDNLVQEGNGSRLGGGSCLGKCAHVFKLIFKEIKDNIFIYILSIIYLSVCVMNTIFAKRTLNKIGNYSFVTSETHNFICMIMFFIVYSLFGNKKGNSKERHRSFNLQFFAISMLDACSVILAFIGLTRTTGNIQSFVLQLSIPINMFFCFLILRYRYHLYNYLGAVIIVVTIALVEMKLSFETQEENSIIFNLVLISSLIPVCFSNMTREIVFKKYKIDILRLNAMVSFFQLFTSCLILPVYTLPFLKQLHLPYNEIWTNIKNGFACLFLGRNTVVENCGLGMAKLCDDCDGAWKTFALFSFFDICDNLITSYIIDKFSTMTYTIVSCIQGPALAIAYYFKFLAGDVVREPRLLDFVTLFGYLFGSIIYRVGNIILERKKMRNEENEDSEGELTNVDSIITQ

Turning to `CC(C)(C)NC(=O)[C@@H]1C[C@@H]2CCCC[C@@H]2CN1C[C@@H](O)[C@H](Cc1ccccc1)NC(=O)[C@H](CC(N)=O)NC(=O)c1ccc2ccccc2n1` [Saquinavir, saquinavir, reference compound], the “Cis-inhibition of [3H]CQ transport (in words)” value on PfCRT^Dd2 [1] is listed as “cis-inhibited”. The “App Vmax for the trans-stimulatory effect of the peptide mimic on [3H]CQ transport” value is 2.2 ±0.5 pmol/oocyte/h at PfCRT^3D7 (PfCRT3D7, mean ± SEM, n = 5, SEM); 0.8 ±0.05 pmol/oocyte/h at PfCRT^Dd2 [2]; 1.6 ±0.2 pmol/oocyte/h at PfCRT^Ecu1110. For the same compound, the “Trans-stimulation of [3H]CQ transport via PfCRT (in words)” value at PfCRT^3D7 (PfCRT isoforms as stated in the sentence) was “trans-stimulated”. Besides, the “[3H]CQ transport, PfCRT3D7 (% PfCRT3D7 control)” value on PfCRT^3D7 (Experiment 1) was 157.43 % PfCRT3D7 control; on PfCRT^3D7 (Experiment 2) it was 162.15 % PfCRT3D7 control; on PfCRT^3D7 (Experiment 3) it was 143.46 % PfCRT3D7 control; on PfCRT^3D7 (Experiment 4), 158.34 % PfCRT3D7 control. Further, the “[3H]CQ transport, PfNT1 (% PfCRTDd2 control)” value at PfNT1 (Experiment 1) is 2.62 % PfCRTDd2 control; on PfNT1 (Experiment 2) it was 2.47 % PfCRTDd2 control; on PfNT1 (Experiment 3), 2.54 % PfCRTDd2 control; at PfNT1 (Experiment 4), 2.32 % PfCRTDd2 control.
